Experimental data published in US9107909B2, “Materials and methods to enhance hematopoietic stem cells engraftment procedures” (priority 2008, dated 2015).
Values joined by “and” are separate entries in the source; they are usually repeats but may differ in a detail not shown here. Equal entries are not always repeated. “Also recorded” adds a separate entry of the source.

What was measured:
CXCR4 mRNA = assay: QRT-PCR of CXCR4 mRNA; assay type: cell-based; conditions: for time post-exposure of (maximal) CXCR4 mRNA upregulation: vs vehicle
Procedure: Total RNA was obtained using the absolutely RNA purification kit (Stratagene, La Jolla, Calif.). A constant amount of RNA was reverse transcribed with random primers (Promega, Madison, Wis.) and MMLV-reverse transcriptase (Promega) in a volume of 50 microLiter with 1 milliMolar dNTPs and RNase inhibitor as described (Fukuda and Pelus, 2001). DNase and RNase free water (Ambion, Austin, Tex.) was added to obtain a final concentration equivalent of 10 nanogram RNA/microLiter and 5 microLiter used for QRT-PCR. Primers for SYBR Green QRTPCR were designed to produce an amplicon size of 75-150 bp. QRT-PCR was performed in a total volume of 30 microLiter using Platinum SYBR Green qPCR supermix UDG with Rox (Invitrogen, Carlsbad, Calif.) in an ABI-7000 (Applied Biosystems, Carlsbad, Calif.), with an activation step of 50° C. for 2 min, denaturation at 95° C. for 2 min and amplification for 45 cycles at 95° C.-15 sec, 50° C.-30 sec, 72° C.-30 sec, followed by dissociation to confirm that only one product was obtained.
Referring now to FIG. 4A, the stromal-cell-derived factor-1 alpha (SDF-1a)/CXCR4 axis has been implicated in HSPC trafficking and homing. The study evaluated whether the improved homing of dmPGE2-treated HSPC was the result of increased SDF-1a/CXCR4 signalling.
To evaluate CXCR4, Lineage^neg mouse bone marrow cells or CD34^+ UCB were treated on ice with either 1 microMolar dmPGE2 or vehicle control for 2 hours, washed, and then cultured in RPMI-1640/10% HI-FBS at 37° C. for 24 hours, stained for SKL (murine cells) or CD34 (human) and CXCR4 and analyzed by FACS. Referring now to FIG. 4A, CXCR4 expression on murine KL and SKL cells and human CD34^+ UCB cells 24 hours after treatment with dmPGE2. Data are expressed as Mean±SEM % change in mean fluorescence intensity (MFI) of CXCR4 due to treatment with dmPGE2 or vehicle (n=3).

[1] = tested on: long-term repopulating HSPC; assay: Limiting dilution competitive transplantation of ex vivo pulsed bone marrow; assay type: in vivo, mouse
Procedure: WBM cells (CD45.2) were treated on ice for 2 hours with either 1 microMolar dmPGE2 (Cayman Chemical, Ann Arbor, Mich.) per 1×10^6 cells or 0.01% ETOH in sterile, non-pyrogenic PBS. After incubation, cells were washed twice and mixed with 2×10^5 congenic CD45.1 competitor marrow cells at ratios of 0.075:1, 0.25:1, 1:1, and 2.5:1 and transplanted into lethally irradiated CD45.1 mice (1100-cGy split dose) by tail-vein injection (5 mice per dilution). CD45.1 and CD45.2 cells in PB were determined monthly by flow cytometry. For head-to-head competitive transplants, WBM from CD45.1 mice and CD45.2 mice were treated with vehicle or dmPGE2 and mixed with 2×10^5 competitor marrow cells from CD45.1/CD45.2 mice at ratios of 0.075:1, 0.25:1, 1:1, and 2.5:1 and transplanted into lethally irradiated CD45.1/CD45.2 mice. The proportion of CD45.1, CD45.2, and CD45.1/CD45.2 cells in PB was determined monthly. HSPC frequency was quantitated by Poisson statistics using L-CALC software (Stem Cell Technologies, Vancouver BC, Canada) with <5% contribution to chimerism considered a negative recipient. Competitive repopulating units (CRU) were calculated as described (Harrison, 1980). For secondary transplants, 2×10^6 WBM from previously transplanted F1 Hybrid mice at the 1:1 ratio at 20 weeks post-transplant were injected into lethally irradiated F1 Hybrid mice in non-competitive fashion and PB chimerism and tri-lineage reconstitution evaluated monthly.
Referring now to FIG. 1A, bone marrow from CD45.1 or CD45.2 mice were treated with vehicle or dmPGE2 respectively. CD45.1/CD45.2 hybrid marrow cells were used as competitors. Limiting dilutions were transplanted into lethally irradiated (1100 cGys, split dose) CD45.1/CD45.2 hybrid mice and chimerism in PB analyzed for 20 weeks. A representative flow plot detecting each cell population is shown (bottom panel).
Referring now to FIG. 1B, frequency analysis (top) for vehicle (red) or dmPGE2 (blue) pulsed cells, determined by Poisson statistics, at 12 weeks; P0=85,560 (vehicle) and P0=23,911 (dmPGE2 treated). Chimerism in PB and CRU analysis is shown at 12 weeks (Mean±SEM). Data represent 2 pooled experiments, n=5 mice/group/expt., each assayed individually.
This model permits quantitative comparison of engraftment and competitiveness of HSPC from control and dmPGE2 treatment groups within the same animal (FIG. 1A), as well as endogenous repopulation of host cells.
For head-to-head competitive analysis, WBM from CD45.1 and CD45.2 mice were treated with vehicle or dmPGE2 and mixed with 2×10^5 competitor marrow cells from CD45.1/CD45.2 mice at various ratios and transplanted into lethally-irradiated CD45.1/CD45.2 mice. The proportion of CD45.1, CD45.2, and CD45.1/CD45.2 cells in PB was determined monthly. For secondary, tertiary and quaternary transplants, 2×10^6 WBM from previously transplanted CD45.1/CD45.2 mice at a 1:1 ratio were injected into lethally-irradiated CD45.1/CD45.2 mice in non-competitive fashion. The proportion of CD45.1, CD45.2, and CD45.1/CD45.2 cells in PB was determined monthly. […] Data for 20 week primary transplant were from 2 pooled experiments, n=5 mice/group/experiment, each assayed individually. Data for secondary, tertiary, and quaternary transplants were from n=5 mice/group, each assayed individually

[2] = 12 weeks post-transplant, vs vehicle treated cells

Structure (SMILES) | time post-exposure of (maximal) CXCR4 mRNA upregulation (CXCR4 mRNA) | number of treated cells giving equivalent reconstitution vs control cells ([1]; frequency analysis, limiting dilution) | period over which enhanced engraftment / HSPC frequency was stable ([1]; primary transplant) | competitive advantage / increase in HSPC frequency of PGE2-pulsed HSPC ([1]; short-term ex vivo exposure, vs control cells, Poisson statistics and CRU) | increase in CXCR4 mRNA (CXCR4 mRNA) | chimerism in peripheral blood [1, 2] | increase in HSPC frequency and competitive repopulating units (CRU) [1, 2] | reconstitution of B- and T-lymphoid and myeloid lineages in PB ([1]; 32 weeks post-transplant, vs untreated competitor or vehicle treated cells) | HSPC frequency analysis P0 (Poisson statistics) ([1]; at 12 weeks, pulsed cells) | chimerism in serial (secondary, tertiary, quaternary) transplants ([1]; no additional treatment before serial transplant) | increase in HSPC frequency ([1]; throughout 20 weeks of follow up post-transplant)
CCCCC[C@H](O)/C=C/[C@H]1[C@H](O)CC(=O)[C@@H]1C/C=C\CCCC(=O)O [PGE2, Prostaglandin E2] | 6 h | one-fourth | 28 weeks and > 20 weeks | 4 fold | – | – | – | – | – | – | –
CCCCC(C)(C)[C@H](O)/C=C/[C@H]1[C@H](O)CC(=O)[C@@H]1C/C=C\CCCC(=O)O [dmPGE2, 16,16-dimethyl prostaglandin E2] | 6 h | – | – | – | 2.65 fold | increased chimerism | ~4 fold | no discernible differences | 23,911 | also seen in secondary transplants; also recorded: Increased chimerism | ~4 fold
